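Assay format: 96-well plates, 48-hour exposure. The concentration for 50% growth inhibition is given as GI50.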 Active and inactive are the calls of the source. No stated cut-off is given here; in the data, active = GI50 up to about 1.1 µM and inactive = higher.

Broadly, the GI50 is the concentration giving 50% growth inhibition.

Holding throughout (test): DTP human tumour cell line panel, 48 h
Test [1] concerns PC-3.
The subject of test [2] is SF-268.
Test [3] relates to SK-MEL-28.
The test system of test [4] is HL-60.
Test [5] deals with IGROV-1.
For test [6], the system named is UO-31.
Test [7] has as its system A549.
The subject of test [8] is HT-29.
For test [9], the system named is NCI-H460.
Test [10] deals with NCI-H522.
Test [11] relates to M14.
Test [12] concerns U-251.
In test [13] the test system is HOP-62.
Test [14] deals with A498.
Test [15] deals with DU-145.
Test [16] deals with HCC 2998.
The test system of test [17] is SNB-19.
Test [18] relates to T47D.
Test [19] concerns RXF 393.
For test [20], the system named is K562.

As for `CCOC(=O)C(NC(=O)c1cccc(Cl)c1)(Nc1ccc(S(=O)(=O)Nc2cc(C)nc(C)n2)cc1)C(F)(F)F` (configuration not stated), the GI50 in [1], in [2], in [3], in [4], in test [5] and in [6] was > 100 µM (inactive) in each case. Besides, the GI50 in test [7], in test [8], in test [9], in test [10], in [11] and in [12] was > 100 µM (inactive) throughout. Moreover, the GI50 in [13], in [14], in test [15], in test [16], in test [17] and in [18] was > 100 µM (inactive) each time.

For the compound `C#C[C@]1(O)[C@@H](CO)O[C@@H](n2ccc(N)nc2=O)[C@@H]1O`, the GI50 in test [1] was 0.0352 µM (active); in [2] it was 0.019 µM (active); in test [3], 0.0728 µM (active); in test [4], < 0.0147 µM (active); in [5], 0.028 µM (active); in test [6] it was 0.0119 µM (active). Moreover, the GI50 was 0.0581 µM (active) in test [19]; < 0.01 µM (active) in test [7]; < 0.0149 µM (active) in test [8]; < 0.01 µM (active) in [9]; < 0.01 µM (active) in test [10]; 0.107 µM (active) in [11]. Also, the GI50 in test [12] is 0.0263 µM (active); in test [20], < 0.01 µM (active); in test [15], < 0.01 µM (active); in test [16], < 0.0135 µM (active); in test [17] it was 0.0706 µM (active); in test [18] it was < 0.015 µM (active).

As for `COc1ccc(CNc2nc(NCc3ccc(OC)cc3)nc(NC3CCCCC3)n2)cc1`, the GI50 in test [1] was 3.21 µM (inactive); in test [2] it was 2.24 µM (inactive); in [3] it was > 100 µM (inactive); in test [4], 4.34 µM (inactive); in test [5] it was 2.09 µM (inactive); in test [6] it was 4.32 µM (inactive). For the same compound, the GI50 in test [7] was 2 µM (inactive); in [8], 3.46 µM (inactive); in [9] it was 2.7 µM (inactive); in test [10], 1.21 µM (inactive); in test [11], 2.15 µM (inactive); in test [12], 3.03 µM (inactive). Also, the GI50 in test [13] was 5.5 µM (inactive); in test [20], 5.35 µM (inactive); in [14] it was 48.6 µM (inactive); in test [15], 2.9 µM (inactive); in [16], 1.11 µM (active); in test [17] it was 2.07 µM (inactive). Further, in test [18], the GI50 is 3.51 µM (inactive).

Regarding `OCC1c2ccccc2-n2nc(-c3ccccc3)c(O)c21` (configuration not stated), the GI50 is 17.6 µM (inactive) in test [1]; 36.9 µM (inactive) in [2]; 58.1 µM (inactive) in test [3]; 36.2 µM (inactive) in test [5]; 22.8 µM (inactive) in test [6]; 17.7 µM (inactive) in [19]. The GI50 in test [7] is 44.2 µM (inactive); in test [8], 30.6 µM (inactive); in test [9] it was 29.9 µM (inactive); in test [10] it was 22.1 µM (inactive); in test [12], 19.4 µM (inactive); in test [13], 41.9 µM (inactive). Besides, the GI50 in test [20] was 21.4 µM (inactive); in test [15] it was 68.5 µM (inactive); in test [16] it was 16.3 µM (inactive); in test [17], 37.9 µM (inactive); in [18], 22.3 µM (inactive).

Values taken from ChEMBL document CHEMBL1201862, “PubChem BioAssay data set” (2004).
